{"source": "ChEMBL document CHEMBL4350991", "about": "“Design, synthesis, and biological evaluation of rutacecarpine derivatives as multitarget-directed ligands for the treatment of Alzheimer's disease” (Eur J Med Chem, 2019)", "key": {"Acetylcholinesterase": {"target": "Acetylcholinesterase (Electrophorus electricus, UniProt O42275)", "sequence (O42275 whole entry)": "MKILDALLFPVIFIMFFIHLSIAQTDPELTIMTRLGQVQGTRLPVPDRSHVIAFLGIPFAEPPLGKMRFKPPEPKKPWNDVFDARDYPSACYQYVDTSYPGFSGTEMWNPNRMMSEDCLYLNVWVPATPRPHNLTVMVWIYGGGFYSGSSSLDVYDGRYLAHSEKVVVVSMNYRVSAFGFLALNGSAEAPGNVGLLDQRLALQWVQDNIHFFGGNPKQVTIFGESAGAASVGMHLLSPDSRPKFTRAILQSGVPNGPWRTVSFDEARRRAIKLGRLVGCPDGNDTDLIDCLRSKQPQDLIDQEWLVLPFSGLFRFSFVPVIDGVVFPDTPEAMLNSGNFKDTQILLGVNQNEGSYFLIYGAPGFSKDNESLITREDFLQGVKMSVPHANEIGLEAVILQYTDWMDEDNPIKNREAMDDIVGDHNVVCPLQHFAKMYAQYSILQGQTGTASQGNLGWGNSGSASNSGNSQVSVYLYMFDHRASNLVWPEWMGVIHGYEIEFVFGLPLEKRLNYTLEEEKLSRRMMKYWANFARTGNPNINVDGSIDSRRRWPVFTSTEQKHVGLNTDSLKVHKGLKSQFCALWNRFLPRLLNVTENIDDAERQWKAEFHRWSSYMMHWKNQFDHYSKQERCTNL", "assay_type": "ADME", "description": "Inhibition of electric eel AChE using acetylthiocholine iodide as substrate preincubated for 30 mins followed by substrate addition and measured after 30 mins by Ellman's method"}, "[1]": {"target": "Cholinesterase (Equus caballus) (UniProt P81908)", "sequence (P81908 whole entry)": "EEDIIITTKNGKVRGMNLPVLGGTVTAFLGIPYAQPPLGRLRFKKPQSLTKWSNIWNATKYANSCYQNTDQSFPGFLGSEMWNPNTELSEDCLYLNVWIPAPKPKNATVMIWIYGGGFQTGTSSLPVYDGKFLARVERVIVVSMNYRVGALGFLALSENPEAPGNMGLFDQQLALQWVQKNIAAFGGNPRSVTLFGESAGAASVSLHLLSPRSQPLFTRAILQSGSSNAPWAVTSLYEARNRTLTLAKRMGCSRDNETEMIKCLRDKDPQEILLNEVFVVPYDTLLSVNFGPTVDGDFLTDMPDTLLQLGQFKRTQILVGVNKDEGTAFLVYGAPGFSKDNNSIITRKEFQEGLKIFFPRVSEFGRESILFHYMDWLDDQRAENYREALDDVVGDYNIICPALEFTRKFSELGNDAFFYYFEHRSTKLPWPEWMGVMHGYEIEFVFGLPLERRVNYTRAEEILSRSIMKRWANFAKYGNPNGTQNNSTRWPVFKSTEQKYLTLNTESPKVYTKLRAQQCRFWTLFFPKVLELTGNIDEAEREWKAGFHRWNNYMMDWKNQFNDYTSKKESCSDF", "test": "Mixed-type inhibition of equine serum BuChE up to 8 uM using varying levels of S-butyrylthiocholine iodide as substrate preincubated for 30 mins followed by substrate addition and measured after 30 mins by Lineweaver-Burk plot analysis"}, "SH-SY5Y [2]": {"system": "SH-SY5Y", "test": "Neuro-antioxidant activity against H2O2-induced oxidative stress in human SH-SY5Y cells assessed as intracellular ROS generation at 1 uM preincubated for 6 hrs followed by H2O2 challenge for 24 hrs by DCFH-DA staining-based fluorescence assay (reference value: 119.61 +/- 5.269%)", "assay_type": "functional"}, "SH-SY5Y [3]": {"system": "SH-SY5Y", "test": "Neuro-antioxidant activity against H2O2-induced oxidative stress in human SH-SY5Y cells assessed as intracellular ROS generation at 5 uM preincubated for 6 hrs followed by H2O2 challenge for 24 hrs by DCFH-DA staining-based fluorescence assay (reference value: 119.61 +/- 5.269%)", "assay_type": "functional"}, "SH-SY5Y [4]": {"system": "SH-SY5Y", "test": "Neuro-antioxidant activity against H2O2-induced oxidative stress in human SH-SY5Y cells assessed as intracellular ROS generation at 10 uM preincubated for 6 hrs followed by H2O2 challenge for 24 hrs by DCFH-DA staining-based fluorescence assay (reference value: 119.61 +/- 5.269%)", "assay_type": "functional"}, "SH-SY5Y [5]": {"system": "SH-SY5Y", "test": "Neuro-antioxidant activity against H2O2-induced oxidative stress in human SH-SY5Y cells assessed as intracellular ROS generation at 20 uM preincubated for 6 hrs followed by H2O2 challenge for 24 hrs by DCFH-DA staining-based fluorescence assay (reference value: 119.61 +/- 5.269%)", "assay_type": "functional"}, "SH-SY5Y [6]": {"system": "SH-SY5Y", "test": "Neuro-antioxidant activity in human SH-SY5Y cells assessed as H2O2-induced increase in intracellular ROS generation at 50 uM preincubated for 6 hrs followed by H2O2 challenge for 24 hrs by DCFH-DA staining-based fluorescence assay relative to control (reference value: 119.61 +/- 5.269%)", "assay_type": "functional"}, "[7]": {"target": "Amyloid-beta precursor protein (Homo sapiens) (UniProt P05067)", "sequence (P05067 whole entry)": "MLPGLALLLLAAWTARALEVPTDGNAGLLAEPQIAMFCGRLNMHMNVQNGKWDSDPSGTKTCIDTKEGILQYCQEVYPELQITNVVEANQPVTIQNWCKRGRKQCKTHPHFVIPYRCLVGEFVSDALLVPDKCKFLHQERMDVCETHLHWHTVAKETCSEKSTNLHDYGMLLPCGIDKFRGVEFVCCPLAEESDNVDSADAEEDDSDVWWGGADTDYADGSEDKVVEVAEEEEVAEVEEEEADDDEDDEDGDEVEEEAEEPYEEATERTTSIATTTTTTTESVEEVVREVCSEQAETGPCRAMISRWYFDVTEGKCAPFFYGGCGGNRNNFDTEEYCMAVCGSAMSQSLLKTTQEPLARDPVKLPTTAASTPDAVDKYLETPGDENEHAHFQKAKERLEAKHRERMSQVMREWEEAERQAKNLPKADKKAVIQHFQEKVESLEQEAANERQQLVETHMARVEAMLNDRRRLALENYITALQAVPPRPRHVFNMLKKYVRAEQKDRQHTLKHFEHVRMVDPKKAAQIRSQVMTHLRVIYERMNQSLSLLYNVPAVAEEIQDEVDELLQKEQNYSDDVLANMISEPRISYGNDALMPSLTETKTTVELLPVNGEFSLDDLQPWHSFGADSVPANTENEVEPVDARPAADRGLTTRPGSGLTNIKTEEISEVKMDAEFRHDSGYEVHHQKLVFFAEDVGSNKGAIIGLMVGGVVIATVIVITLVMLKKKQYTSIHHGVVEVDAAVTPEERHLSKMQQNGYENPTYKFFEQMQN", "test": "Inhibition of self-mediated amyloid beta (1 to 42) (unknown origin) aggregation assessed as short and thin fibril formation at 100 uM incubated for 48 hrs by transmission electron microscopic method"}, "[8]": {"test": "Metal chelating activity assessed as compound-Cu2+ complex formation at 20 uM in presence of CuCl2 after 1 hr by UV-visible spectrophotometric analysis"}, "[9]": {"test": "Metal chelating activity assessed as compound-Zn2+ complex formation at 20 uM in presence of ZnCl2 after 1 hr by UV-visible spectrophotometric analysis"}, "[10]": {"test": "Metal chelating activity assessed as compound-Fe2+ complex formation at 20 uM in presence of FeSO4 after 1 hr by UV-visible spectrophotometric analysis"}, "[11]": {"test": "Metal chelating activity assessed as compound-Al3+ complex formation at 20 uM in presence of AlCl3 after 1 hr by UV-visible spectrophotometric analysis"}, "[12]": {"test": "Metal chelating activity assessed as compound-Mg2+ complex formation at 20 uM in presence of MgCl2 after 1 hr by UV-visible spectrophotometric analysis"}, "[13]": {"test": "Metal chelating activity assessed as compound-Ca2+ complex formation at 20 uM in presence of CaCl2 after 1 hr by UV-visible spectrophotometric analysis"}, "[14]": {"test": "n-Octanol-phosphate buffer partition co-efficient, log P of compound at pH 7.4 incubated for 48 hrs by UV spectrophotometry-based shake-flask method", "assay_type": "physicochemical"}, "PC-12 [15]": {"system": "PC-12", "test": "cells", "assay_type": "functional", "conditions": "Rattus norvegicus"}, "PC-12 [16]": {"system": "PC-12", "test": "cells", "assay_type": "functional", "conditions": "Rattus norvegicus", "remark": "listed apart in the source"}, "PC-12 [17]": {"system": "PC-12", "test": "cells", "assay_type": "functional", "conditions": "Rattus norvegicus", "remark": "listed apart in the source"}, "PC-12 [18]": {"system": "PC-12", "test": "cells", "assay_type": "functional", "conditions": "Rattus norvegicus", "remark": "listed apart in the source"}, "PC-12 [19]": {"system": "PC-12", "test": "cells", "assay_type": "functional", "conditions": "Rattus norvegicus", "remark": "listed apart in the source"}, "SH-SY5Y [20]": {"system": "SH-SY5Y", "test": "Neuroprotective activity against amyloid beta (1 to 42 residues) induced cytotoxicity in human SH-SY5Y cells assessed as cell viability at 10 uM pretreated for 3 hrs followed by amyloid beta(1-42) challenge measured after 24 hrs by MTT assay (reference value: 37.53 +/- 1.4%)", "assay_type": "functional", "conditions": "read-out: Activity"}, "SH-SY5Y [21]": {"system": "SH-SY5Y", "test": "Neuroprotective activity against amyloid beta (1 to 42 residues) induced cytotoxicity in human SH-SY5Y cells assessed as cell viability at 30 uM pretreated for 3 hrs followed by amyloid beta(1-42) challenge measured after 24 hrs by MTT assay (reference value: 37.53 +/- 1.4 %)", "assay_type": "functional", "conditions": "read-out: Activity"}, "SH-SY5Y [22]": {"system": "SH-SY5Y", "test": "Neuroprotective activity against amyloid beta (1 to 42 residues) induced cytotoxicity in human SH-SY5Y cells assessed as cell viability at 50 uM pretreated for 3 hrs followed by amyloid beta(1-42) challenge measured after 24 hrs by MTT assay (reference value: 37.53 +/- 1.4 %)", "assay_type": "functional", "conditions": "read-out: Activity"}, "SH-SY5Y [23]": {"system": "SH-SY5Y", "test": "Neuroprotective activity against H2O2-induced cytotoxicity in human SH-SY5Y cells assessed as cell viability at 10 uM pretreated for 3 hrs followed by H2O2 challenge measured after 24 hrs by MTT assay (reference value: 42.69 +/- 0.8%)", "assay_type": "functional", "conditions": "read-out: Activity"}, "SH-SY5Y [24]": {"system": "SH-SY5Y", "test": "Neuroprotective activity against H2O2-induced cytotoxicity in human SH-SY5Y cells assessed as cell viability at 30 uM pretreated for 3 hrs followed by H2O2 challenge measured after 24 hrs by MTT assay (reference value: 42.69 +/- 0.8%)", "assay_type": "functional", "conditions": "read-out: Activity"}, "SH-SY5Y [25]": {"system": "SH-SY5Y", "test": "Neuroprotective activity against H2O2-induced cytotoxicity in human SH-SY5Y cells assessed as cell viability at 50 uM pretreated for 3 hrs followed by H2O2 challenge measured after 24 hrs by MTT assay (reference value: 42.69 +/- 0.8%)", "assay_type": "functional", "conditions": "read-out: Activity"}, "[26]": {"test": "Metal chelating activity assessed as mole fraction of compound required to show 1:1 stoichiometry for compound-Cu2+ complex at 20 uM after 1 hr by UV-Vis absorption spectrophotometric method"}, "PC-12 [27]": {"system": "PC-12", "test": "Neuroprotective activity against H2O2 induced cytotoxicity in rat PC12 cells assessed as increase in cell viability pretreated for 3 hrs followed by H2O2 challenge measured after 24 hrs by MTT assay", "assay_type": "functional, cell-based"}, "SH-SY5Y [28]": {"system": "SH-SY5Y", "test": "Neuroprotective activity against amyloid beta (1 to 42 residues) induced cytotoxicity in human SH-SY5Y cells assessed as increase in cell viability pretreated for 3 hrs followed by amyloid beta (1 to 42 residues) challenge measured after 24 hrs by MTT assay", "assay_type": "functional, cell-based"}, "SH-SY5Y [29]": {"system": "SH-SY5Y", "test": "Neuroprotective activity against H2O2-induced cytotoxicity in human SH-SY5Y cells assessed as increase in cell viability pretreated for 3 hrs followed by H2O2 challenge measured after 24 hrs by MTT assay", "assay_type": "functional, cell-based"}, "Cholinesterase": {"target": "Cholinesterase (Equus caballus, UniProt P81908)", "sequence (P81908 whole entry)": "as the sequence (P81908 whole entry) above", "description": "Inhibition of equine serum BuChE using S-butyrylthiocholine iodide as substrate preincubated with enzyme for 30 mins followed by substrate addition and measured after 30 mins by Ellman's method"}}, "note": "Activity calls are given as the source filed them. The rule behind the calls is not given here.", "data": [{"smiles": "O=c1c2cc(NS(=O)(=O)c3ccccc3OC(F)(F)F)ccc2nc2n1CCc1c-2[nH]c2ccccc12", "values": [{"measurement": "IC50", "setting": "Acetylcholinesterase", "result": "> 100", "unit": "µM"}, {"measurement": "inhibition", "setting": "[1]", "result": "Active"}, {"measurement": "Activity", "setting": "SH-SY5Y [2]", "result": 83.17, "unit": "%"}, {"measurement": "Activity", "setting": "SH-SY5Y [3]", "result": 84.23, "unit": "%"}, {"measurement": "Activity", "setting": "SH-SY5Y [4]", "result": 82.464, "unit": "%"}, {"measurement": "Activity", "setting": "SH-SY5Y [5]", "result": 105.494, "unit": "%"}, {"measurement": "Activity", "setting": "SH-SY5Y [6]", "result": 98.502, "unit": "%"}, {"measurement": "inhibition", "setting": "[7]", "result": "Active"}, {"measurement": "Activity", "setting": "[8]", "result": "Active"}, {"measurement": "Activity", "setting": "[9]", "result": "inactive"}, {"measurement": "Activity", "setting": "[10]", "result": "inactive"}, {"measurement": "Activity", "setting": "[11]", "result": "inactive"}, {"measurement": "Activity", "setting": "[12]", "result": "inactive"}, {"measurement": "Activity", "setting": "[13]", "result": "inactive"}, {"measurement": "logD at 48 h", "setting": "[14]", "result": 3.62}, {"measurement": "viability at 1 µM", "setting": "PC-12 [15]", "result": 44.3, "unit": "%"}, {"measurement": "viability at 5 µM", "setting": "PC-12 [16]", "result": 45.3, "unit": "%"}, {"measurement": "viability at 10 µM", "setting": "PC-12 [17]", "result": 59.7, "unit": "%"}, {"measurement": "viability at 30 µM", "setting": "PC-12 [18]", "result": 59.9, "unit": "%"}, {"measurement": "viability at 50 µM", "setting": "PC-12 [19]", "result": 63.8, "unit": "%"}, {"measurement": "viability at 10 µM", "setting": "SH-SY5Y [20]", "result": 47.9, "unit": "%"}, {"measurement": "viability at 30 µM", "setting": "SH-SY5Y [21]", "result": 57.6, "unit": "%"}, {"measurement": "viability at 50 µM", "setting": "SH-SY5Y [22]", "result": 64.2, "unit": "%"}, {"measurement": "viability at 10 µM", "setting": "SH-SY5Y [23]", "result": 53.9, "unit": "%"}, {"measurement": "viability at 30 µM", "setting": "SH-SY5Y [24]", "result": 61.7, "unit": "%"}, {"measurement": "viability at 50 µM", "setting": "SH-SY5Y [25]", "result": 61.9, "unit": "%"}, {"measurement": "Activity", "setting": "[26]", "result": 1.1, "unit": "molar ratio"}, {"measurement": "Activity", "setting": "PC-12 [27]", "result": "Dose-dependent effect"}, {"measurement": "Activity", "setting": "SH-SY5Y [28]", "result": "Dose-dependent effect"}, {"measurement": "Activity", "setting": "SH-SY5Y [29]", "result": "Dose-dependent effect"}, {"measurement": "IC50", "setting": "Cholinesterase", "result": 3.6, "unit": "µM"}]}]}
